Experimental data as given in patent US20230295109A1, “PYRIDINONE COMPOUNDS FOR THE TREATMENT OF AUTOIMMUNE DISEASE” (F. Hoffmann-La Roche AG, priority 2020, published 2023).

Legend:
[1] = target: T1, TLR9 (Homo sapiens, UniProt Q9NR96); experiment: Human PBMC cell-based assay, TLR9 (CpG ODN 2216); parameters: These cells express TLR7, TLR8, or TLR9, and therefore are natural responders to respective ligand stimulation; endogenous in cells; host or cells: primary human PBMC from healthy donor whole blood; settings: CpG ODN 2216 at 1 µM, overnight, cytokine levels, read-out: hPBMC/TLR9 IC50
T1 sequence (Q9NR96 26-1032): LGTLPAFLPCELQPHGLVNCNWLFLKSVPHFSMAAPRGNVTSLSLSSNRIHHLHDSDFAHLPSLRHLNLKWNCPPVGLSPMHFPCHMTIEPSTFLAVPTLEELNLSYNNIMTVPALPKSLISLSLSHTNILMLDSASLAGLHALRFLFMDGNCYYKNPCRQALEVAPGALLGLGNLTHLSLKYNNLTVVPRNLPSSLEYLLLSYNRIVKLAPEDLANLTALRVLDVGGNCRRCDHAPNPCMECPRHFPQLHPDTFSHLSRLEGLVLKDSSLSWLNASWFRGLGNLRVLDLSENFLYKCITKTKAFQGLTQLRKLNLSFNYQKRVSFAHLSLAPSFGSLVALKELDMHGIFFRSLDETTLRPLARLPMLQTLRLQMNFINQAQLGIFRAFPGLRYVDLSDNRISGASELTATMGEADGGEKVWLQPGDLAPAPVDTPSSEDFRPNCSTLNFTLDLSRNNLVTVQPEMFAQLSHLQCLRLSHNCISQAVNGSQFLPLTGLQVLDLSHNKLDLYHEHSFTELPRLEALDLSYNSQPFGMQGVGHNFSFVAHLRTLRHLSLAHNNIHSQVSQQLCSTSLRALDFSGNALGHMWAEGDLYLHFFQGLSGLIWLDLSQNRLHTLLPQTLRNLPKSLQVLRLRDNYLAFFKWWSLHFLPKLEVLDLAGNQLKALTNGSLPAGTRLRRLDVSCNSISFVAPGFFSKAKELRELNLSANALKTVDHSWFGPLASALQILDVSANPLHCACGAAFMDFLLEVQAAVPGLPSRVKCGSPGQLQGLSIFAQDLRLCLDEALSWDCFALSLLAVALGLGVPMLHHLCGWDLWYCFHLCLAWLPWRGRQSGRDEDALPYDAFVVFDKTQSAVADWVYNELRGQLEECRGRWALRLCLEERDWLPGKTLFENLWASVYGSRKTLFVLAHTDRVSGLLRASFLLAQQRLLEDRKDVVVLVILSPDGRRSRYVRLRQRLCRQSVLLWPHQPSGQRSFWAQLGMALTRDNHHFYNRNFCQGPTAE
Excerpt: (§1) Unlike the HEK reporter cell lines, human peripheral blood mononuclear cell (PBMC) represents primary human immune cells in blood mainly consisting of lymphocytes, monocytes, and dendritic cells. These cells express TLR7, TLR8, or TLR9, and therefore are natural responders to respective ligand stimulation. Upon activation of these TLRs, PBMCs secrete similar cytokines and chemokines in vitro and in vivo, and therefore the in vitro potency of a TLR7/8/9 antagonist in human PBMC is readily translatable to its pharmacodynamics response in vivo.
(§2) Human peripheral blood mononuclear cells (PBMC) were isolated from freshly-drawn lithium-heparinized (Lithium Heparin Plus blood Collection tube, BD Vacutainer®) healthy donor whole blood by density gradient (Ficoll-PaqueTM PLUS, GE Healthcare life Sciences). Briefly, […] was diluted with 25 mL PBS (without Ca^2+, Mg^2+) in a 50 mL conical tube with porous barrier (Leucosep tube, Greiner bio-one), where 15.5 mL Ficoll-Paque was under laid after spinning. Tubes were centrifuged for 20 minutes at 800×g (1946 rpm) with the brake in the off position, and PBMC were collected from the buffy coat. Cells were then washed twice in PBS, and red blood cells were lysed by suspension in 2 mL (Red Blood Cell Lysis Buffer, Alfa Aesar) for 5-10 minutes at room temperature. After a final wash in PBS, PBMC were resuspended at a final concentration of 2×10^6 cells/mL in RPMI-1640 media with GlutaMAXTM (Gibco) supplemented with 10% Fetal Bovine Serum (Sigma) and plated at 150µL/well (3×10^5 cells/well) in tissue culture treated round bottom 96-well plates (Corning Incorporated). Antagonist compounds (compounds of this invention) solubilized and serial diluted in 100% DMSO were added in duplicate to cells to yield a final concentration of 1% DMSO (v/v). PBMC were incubated with antagonist compounds for 30 minutes at 37° C., 5% CO2 before adding various TLR agonist reagents in 48 µL complete media per well as follows (final concentrations indicated): CpG ODN 2216 (InvivoGen) at 1 µM for TLR9, ORN 06/LyoVec (InvivoGen) at 1 µg/mL for TLR8 and R848 (InvivoGen) at 1 µg/mL for TLR7 and TLR8. PBMC were incubated overnight at 37° C. with 5% CO2. Cell culture supernatants were collected, and levels of various human cytokines were assessed by Luminex assay (ProcartaPlexTM Multiplex Immunoassay, Invitrogen) or ELISA procedure according to the manufacturer’s recommended protocol (eBioscience, ThermoFisher Scientific). Viability of the cells was also checked with Cell Viability Assay (CellTiter Glo®Luminescent Cell Viability Assay, Promega).

[2] = test system: TLR7 and TLR8; experiment: Human PBMC cell-based assay, TLR7 and TLR8 (R848); settings: R848 at 1 µg/mL, overnight, cytokine levels, read-out: hPBMC/TLR78 IC50
Excerpt: as §1, §2

Row | Structure (SMILES) | IC50 [1] [nM] | IC50 [2] [nM]
1 | Cc1cc(-c2ccc(N3CCN(Cc4ccc(N5CCNCC5)cn4)CC3)nc2C(C)C)cn(C)c1=O [Example 7, 5-[2-isopropyl-6-[4-[(5-piperazin-1-yl-2-pyridyl)methyl]piperazin-1-yl]-3-pyridyl]-1,3-dimethyl-pyridin-2-one] | 101 | –
2 | CCc1nc(N2CCN(Cc3cnc(N4CC5(CNCCO5)C4)nc3)CC2)ccc1-c1cc(C)c(=O)n(C)c1 [Example 1, 5-[2-ethyl-6-[4-[[2-(5-oxa-2,8-diazaspiro[3.5]nonan-2-yl)pyrimidin-5-yl]methyl]piperazin-1-yl]-3-pyridyl]-1,3-dimethyl-pyridin-2-one] | 388 | –
3 | Cc1cc(-c2ccc(N3CCN(Cc4ncc(N5CCNCC5)cn4)CC3)nc2C(C)C)cn(C)c1=O [Example 12, 5-[2-isopropyl-6-[4-[(5-piperazin-1-ylpyrimidin-2-yl)methyl]piperazin-1-yl]-3-pyridyl]-1,3-dimethyl-pyridin-2-one] | 115 | 12
4 | CCc1nc(N2CCN(Cc3ccc(N4CC5(CNCCO5)C4)nc3)CC2)ccc1-c1cc(C)c(=O)n(C)c1 [Example 2, 5-[2-ethyl-6-[4-[[6-(5-oxa-2,8-diazaspiro[3.5]nonan-2-yl)-3 pyridyl]methyl]piperazin-1-yl]-3-pyridyl]-1,3-dimethyl-pyridin-2-one] | 362 | 7
5 | CCc1nc(N2CCN(Cc3cnc(N4CC(C)(N)C4)nc3)CC2)ccc1-c1cc(C)c(=O)n(C)c1 [Example 3, 5-[6-[4-[[2-(3-amino-3-methyl-azetidin-1-yl)pyrimidin-5-yl]methyl]piperazin-1-yl]-2-ethyl-3-pyridyl]-1,3-dimethyl-pyridin-2-one] | 377 | 21
6 | Cc1cc(-c2ccc(N3CCN4CCN(c5ccc(N6CCNCC6)nc5)CC4C3)nc2C(C)C)cn(C)c1=O (centres unmarked) [Example 16, 5-[2-isopropyl-6-[8-(6-piperazin-1-yl-3-pyridyl)-3,4,6,7,9,9a-hexahydro-1H-pyrazino[1,2-a]pyrazin-2-yl]-3-pyridyl]-1,3-dimethyl-pyridin-2-one] | 263 | 2
7 | Cc1cc(-c2ccc(N3CCN(Cc4cnc(N5CCNCC5)nc4)CC3)nc2C(C)C)cn(C)c1=O [Example 9, 5-[2-isopropyl-6-[4-[(2-piperazin-1-ylpyrimidin-5-yl)methyl]piperazin-1-yl]-3-pyridyl]-1,3-dimethyl-pyridin-2-one] | 47 | 0.4
8 | Cc1cc(-c2ccc(N3CCC(N4CCNCC4)CC3)nc2C(C)C)cn(C)c1=O [Example 18, 5-[2-isopropyl-6-(4-piperazin-1-yl-1-piperidyl)-3-pyridyl]-1,3-dimethyl-pyridin-2-one] | 700 | –
9 | Cc1cc(-c2ccc(N3CCN(Cc4cnc(N5CC6(CNCCO6)C5)nc4)CC3)nc2C(C)C)cn(C)c1=O [Example 6, 5-[2-isopropyl-6-[4-[[2-(5-oxa-2,8-diazaspiro[3.5]nonan-2-yl)pyrimidin-5-yl]methyl]piperazin-1-yl]-3-pyridyl]-1,3-dimethyl-pyridin-2-one] | 730 | –
